From patent US20100240604A1, “PROTECTED NUCLEOTIDE ANALOGS” (Alios BioPharma, Inc., priority 2009, published 2010) come the findings set out here.

Data set [1] relates to HCV RNA-replicating cell line, AVA5 (genotype 1b, subgenomic replicon). Kind of data set: HCV replicon assay: intracellular HCV RNA levels by blot hybridization. It is filed as cell-based, HCV genotype 1b. The following applies: for EC50: 2-fold depression of HCV RNA relative to untreated cultures; for EC50 / EC90: normalized to β-actin RNA, daily treatment for three days, assessed at 72 hours; for EC90: 10-fold depression of HCV RNA relative to untreated cultures; for Antiviral activity (in words): results in Table 1. The method, then: (§1) Antiviral activity of the test compounds was assessed (Okuse, et al., Antivir. Res. (2005) 65:23) in the stably HCV RNA-replicating cell line, AVA5 (genotype 1b, subgenomic replicon, Blight, et al., Sci. (2000) 290:1972). Compounds were added to dividing cultures daily for three days. Cultures generally start the assay at 30-50% confluence and reach confluence during the last day of treatment. Intracellular HCV RNA levels and cytotoxicity were assessed 72 hours after treatment.
(§2) Quadruplicate cultures for HCV RNA levels and cytoxicity (on 96-well plates) were used. A total of 12 untreated control cultures, and triplicate cultures treated with α-interferon (concentrations of: 10 IU/mL, 3.3 IU/mL, 1.1 IU/mL and 0.37 IU/mL) and 2′C-Me-C (concentrations of: 30 μM, 10 μM, 3.3 μM and 1.1 μM) served as assay controls.
(§3) Intracellular HCV RNA levels were measured using a conventional blot hybridization method, in which HCV RNA levels are normalized to the levels of β-actin RNA in each individual culture (Okuse, et al., Antivir. Res. (2005) 65:23). Cytotoxicity was measured using an established neutral red dye uptake assay (Korba and Gerin, Antivir. Res. (1992) 19:55; Okuse, et al., Antivir. Res. (2005) 65:23). HCV RNA levels in the treated cultures are expressed as a percentage of the mean levels of RNA detected in untreated cultures. The absorbance of the internalized dye at […] (A510) was used for quantitative analysis.
(§4) Compounds were dissolved in 100% tissue culture grade DMSO (Sigma, Inc.) at 10 mM. Aliquots of test compounds sufficient for one daily treatment were made in individual tubes and all material was stored at −20° C. For the test, the compounds were suspended into culture medium at room temperature, and immediately added to the cell cultures. Compounds were analyzed separately in two groups with separate assay controls. […]
(§5) Values presented (±standard deviations [S.D.]) were calculated by linear regression analysis using data combined from all treated cultures. S.D. was calculated using the standard error of regression generated from the linear regression analyses (QuattroPro™). EC50 and EC90, drug concentrations at which a 2-fold, or a 10-fold depression of HCV RNA (relative to the average levels in untreated cultures), respectively, were observed; CC50, drug concentrations at which a 2-fold depression of neutral red dye uptake (relative to the average levels in untreated cultures) were observed.
On the technique in general: A replicon is a self-replicating genome or part of one, used to study replication in cells.

Data set [2] can be described thus: Cytotoxicity by neutral red dye uptake assay in the HCV replicon cultures. It is filed as cell-based. The following applies: human; 2-fold depression of neutral red dye uptake relative to untreated cultures; daily treatment for three days, assessed at 72 hours. The method, then: as §1, §2, §3, §4, §5
Data set [3] deals with AVA5 cell line. Described as above. It is filed as cell-based. The following applies: 2-fold depression of neutral red dye uptake relative to untreated cultures; daily treatment for three days, assessed at 72 hours. Here is the method: as §1, §2, §3, §4, §5

What is called EC50 is the concentration that produces a half-maximal response. A higher EC50 goes with weaker potency. By EC90 is commonly meant the point of the concentration-response curve where the effect stands at 90%. Broadly, the CC50 is the concentration that lowers cell viability or growth by half. Read a low CC50 as greater toxicity to the cells. For `COC(=O)[C@H](C)NP(=O)(OC[C@H]1O[C@@H](n2cnc(C(N)=O)n2)[C@@H](O)C1O)Oc1ccccc1` (stereo partly drawn) [Compound 9], in data set [1] (Hepatitis C virus, Ava5), the 50% effective concentration (EC50) is greater than 100 µM and the EC90 was greater than 100 µM. Also, the “Antiviral activity (in words)” value in data set [1] was “inactive”. In addition, the half-maximal cytotoxic concentration (CC50) at 72 h in data set [2] is greater than 100 µM.

Consider `CCOC(=O)C(COC(C)=O)(COP(=O)(N[C@@H](C)C(=O)OC)OC[C@H]1O[C@@H](n2cnc(C(N)=O)n2)[C@H](O)[C@@H]1O)C(=O)OCC` (stereo partly drawn) [Compound 10], for which, in data set [1], the EC50 was found to be 8.7 µM, the EC90 stood at 54 µM and the “Antiviral activity (in words)” value is “showed activity”. The molecule also registered a CC50 in data set [3] greater than 100 µM.

In data set [1] (Hepatitis C virus, Ava5), `CCOC(=O)C(COC(C)=O)(COP(=O)(OC[C@H]1O[C@@H](n2cnc(C(N)=O)n2)C(O)C1O)OCC(COC(C)=O)(C(=O)OCC)C(=O)OCC)C(=O)OCC` (stereo partly drawn) [Compound 11, Ribavirin 5′-bis[3-acetyloxy-2,2-bis(ethoxycarbonyl)propyl]phosphate] displayed a half-maximal effective concentration (EC50) of 1.6 ± 0.2 µM and a concentration for an effect of 90% (EC90) of 4.4 ± 0.4 µM. Further, the “Antiviral activity (in words)” value in data set [1] is listed as “showed activity”. The same molecule yielded a CC50 at 72 h in data set [2] of 9.7 ± 0.2 µM.

In data set [1], `C[C@@]1(O)[C@H](O)[C@@H](CO)O[C@H]1n1ccc(N)nc1=O` [Compound 12a, 2′-β-methylcytidine, reference compound] yielded an EC50 of 1.6 µM and a concentration for an effect of 90% (EC90) of 5.9 µM. Besides, the CC50 in data set [3] is greater than 100 µM.

`COC(=O)[C@H](C)NP(=O)(OC[C@H]1O[C@@H](n2ccc(N)nc2=O)[C@H](OC)[C@@H]1O)Oc1ccccc1` (stereo partly drawn) [Compound 13, 2′-O-Methylcytidine 5′-[O-phenyl-N-(S-2-methoxy-1-methyl-2-oxoethyl)]phosphoramidate]: in data set [1], the EC50 was greater than 100 µM and the 90% effect concentration (EC90) is greater than 100 µM. The molecule further displayed a CC50 in data set [3] greater than 100 µM.
